US9439874B2, “Food composition for nourishing, maintaining and cultivating a variety of stem cells and a method for manufacturing the same” (THE WRITER OF RESVERATROL BIOTECH R&D CO., LTD., priority 2012, dated 2016)

How the values were obtained:
MDA-MB-231 cell = settings: combination with TRAIL; cited from earlier work
[1] = system: human gastric cancer BGC823 cells; settings: cited from earlier work
Lewis lung carcinoma = settings: mouse, in vivo; cited from earlier work
[2] = system: cervical cancer Hela cells; settings: cited from earlier work
[3] = system: human lung adenocarcinoma A549 cells; settings: 20 μM, EGF-induced; cited from earlier work
[4] = system: nematodes, drosophila, African Carp and mouse; settings: cited from earlier work
L-8 = settings: mouse, in vivo; cited from earlier work
esophageal cancer cell = settings: cited from earlier work
cancer stem cells = settings: cited from earlier work
[5] = system: malignant glioma cell line U87 and cancer stem cells (CSCs); settings: cited from earlier work
[6] = cited from earlier work
[7] = isomerization under irradiation of UV analyzer; type: physicochemical; settings: UV analyzer 136 μw/cm^2, embedded vs unembedded
Description: 2. Solutions to the problem of cis & trans structures and transformation of resveratrol. Trans-resveratrol is very instable and will transform into cis-resveratrol under the UV irradiation. After its aqueous solution (pH1-7) kept in dark place for 28 day, 4.7% of the trans-resveratrol will transform into cis-resveratrol. Low water solubility and poor stability under UV irradiation restrict the all-purpose application. Therefore, HP-β-CD is used to embed the resveratrol into inclusion compound. […] Moreover, the food formula packaged by capsule solves the problems of oxidization misgivings and stability.

[8] = system: human telomerase reverse transcriptase (hTERT); settings: dose- and time-dependent; cited from earlier work
[9] = system: human laryngeal cancer Hep-2 cell; settings: cited from earlier work
Lymphoma Raji cells = settings: in vitro; cited from earlier work
[10] = system: rat mesenchymal stem cells; settings: cited from earlier work

For `Oc1ccc(C=Cc2cc(O)cc(O)c2)cc1` [resveratrol], the TRAIL-induced cell apoptosis (MDA-MB-231 cell) is listed as “enhanced”, the “proliferation of BGC823 cells” value [1] is listed as “inhibit” and the “telomerase activity in BGC823” value ([1]; with the extension of the time) is listed as “declined”. For the same compound, the “growth of Lewis lung carcinoma in mice” value (Lewis lung carcinoma) was “inhibiting the growth”, the “in vitro growth of cervical cancer Hela cells” value [2] was “obvious inhibition effects” and the “A549 cells' invasion” value [3] was “inhibit”. For the same compound, the prolongation of life [4] was 30-75%, the “tumor-bearing mice L-8 generation” value (L-8) was “inhibit” and the “esophageal cancer cell apoptosis” value (esophageal cancer cell) was “induce”. For the same compound, the “cancer stem cells survival” value (cancer stem cells; high concentration of resveratrol with radiotherapy) was “one-third”, the enhancement of radiotherapy (cancer stem cells; high concentration of resveratrol, mice bearing tumor) was 30%-50% and the “apoptosis of U87 and cancer stem cells” value [5] was “induce”. The “solubility in organic solvents” value ([6]; ethyl ether, chloroform, methanol, ethanol, acetone, acetic ether) was “soluble”, the solubility in water ([6]; water) was “hardly soluble (slightly soluble)” and the “isomerization under UV irradiation” value [7] was “quickens up isomerization”. For the same compound, the “expression of hTERT mRNA and protein” value [8] was “down-regulated”, the Hep-2 cell proliferation [9] was “suppress” and the “IL-8 mRNA expression of lymphoma Raji cells” value (Lymphoma Raji cells) was “inhibit”. For the same compound, the “proliferation of lymphoma Raji cells” value (Lymphoma Raji cells) was “inhibit”.

For `O=c1c(O)c(-c2ccc(O)c(O)c2)oc2cc(O)cc(O)c12` [quercetin], the “proliferation and differentiation of mesenchymal stem cells of bone marrow” value [10] is listed as “promote” and the “expression of BMP2 mRNA” value ([10]; differentiation of mesenchymal stem cells) is listed as “increase”.
